1 compound from US20230026869A1, “CRYSTAL FORM OF NUCLEOPROTEIN INHIBITOR AND USE THEREOF” (CHIA TAI TIANQING PHARMACEUTICAL GROUP CO., LTD., priority 2019, published 2023) can be followed below.

What all share (type): in vitro ADME
The target in one data set is T1, CYP1A2 (Homo sapiens, UniProt P05177).
T1 construct: from tissue; host or cells: human liver microsomes
T1 sequence (P05177 1-516): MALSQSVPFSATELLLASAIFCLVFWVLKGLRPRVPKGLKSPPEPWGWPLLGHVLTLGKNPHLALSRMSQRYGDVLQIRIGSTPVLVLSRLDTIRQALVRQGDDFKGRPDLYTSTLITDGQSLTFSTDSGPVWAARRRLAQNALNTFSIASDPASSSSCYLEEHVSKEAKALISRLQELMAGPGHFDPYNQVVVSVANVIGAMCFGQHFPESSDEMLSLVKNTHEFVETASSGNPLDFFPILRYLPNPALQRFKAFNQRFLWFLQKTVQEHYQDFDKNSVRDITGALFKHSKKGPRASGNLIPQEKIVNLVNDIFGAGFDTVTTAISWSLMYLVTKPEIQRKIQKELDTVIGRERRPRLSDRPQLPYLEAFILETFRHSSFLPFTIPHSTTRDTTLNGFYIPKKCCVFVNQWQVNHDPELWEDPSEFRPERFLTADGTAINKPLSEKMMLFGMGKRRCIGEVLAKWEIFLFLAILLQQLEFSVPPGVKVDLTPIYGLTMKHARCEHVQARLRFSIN
Kind of data set: Inhibition of human liver microsomal cytochrome P450 isoenzyme CYP1A2. The following applies: human liver microsomes. As to the method: (§1) Objective: The inhibitory effect of the test compound on the activity of human liver microsomal cytochrome P450 isoenzymes (CYP1A2, CYP2C9, CYP2C19, CYP2D6 and CYP3A4) was determined. […]

The nature of data set [1]: Metabolic stability in CD-1 mice liver microsomes. How it is done:
Objective: The metabolic stability of the test compound in CD-1 mice and human liver microsomes was determined. […]
For orientation: Liver microsomes are a subcellular fraction often used to study metabolism.

The next data set concerns the target T2, CYP2D6 (Homo sapiens, UniProt P10635).
T2 construct: from tissue; host or cells: human liver microsomes
Kind of data set: Inhibition of human liver microsomal cytochrome P450 isoenzyme CYP2D6. As to conditions: human liver microsomes. As to the method: as §1

Some results are limits rather than exact numbers.

T2 sequence (P10635 whole entry): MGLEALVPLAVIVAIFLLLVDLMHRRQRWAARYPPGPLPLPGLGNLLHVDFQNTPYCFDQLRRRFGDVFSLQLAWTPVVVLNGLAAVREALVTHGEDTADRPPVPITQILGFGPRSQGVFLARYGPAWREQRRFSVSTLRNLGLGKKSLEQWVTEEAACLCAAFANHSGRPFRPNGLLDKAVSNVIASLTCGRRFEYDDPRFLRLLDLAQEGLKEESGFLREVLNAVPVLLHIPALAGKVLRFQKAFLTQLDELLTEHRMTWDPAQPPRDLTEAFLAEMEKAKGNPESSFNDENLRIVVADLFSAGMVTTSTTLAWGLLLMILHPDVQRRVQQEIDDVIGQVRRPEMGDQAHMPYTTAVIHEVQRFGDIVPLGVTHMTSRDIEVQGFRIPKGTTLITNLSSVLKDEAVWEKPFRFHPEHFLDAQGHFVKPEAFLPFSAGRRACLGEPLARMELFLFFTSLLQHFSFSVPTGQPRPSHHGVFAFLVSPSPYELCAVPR

As for `CC1(NC(=O)C(=O)c2c(Cl)c(C(=O)Nc3cc(F)c(F)c(F)c3)c3n2CCC3)CCC(CC(=O)O)CC1` (centres unmarked) [Compound of formula (I)], the IC50 at CYP1A2 and against CYP2D6 was more than 50 µM each time. This compound yielded a microsomal CLint at 1 μM in data set [1] (CD-1, mouse, microsomes) of less than 9.6 µL/min/mg. In data set [1] (mouse, CD-1 mice liver microsomes), the CLint scaled at 1 μM is less than 38 mL/min/kg. Also, the half-life at 1 μM in data set [1] (mouse, CD-1 mice liver microsomes, 1 μM compound, 0.5 mg/mL) is more than 2.42 h.

The term IC50 denotes the concentration needed to halve the response being measured. A high value points to lower potency. A word on the microsomal CLint: it is the rate of metabolic loss divided by the concentration. Usually CLint scaled stands for a measure of how fast metabolising enzymes remove a compound, apart from limits set by blood flow. A lower CLint scaled goes with slow turnover. What is called half-life is how long it takes for the measured level to halve. The low end stands for rapid decline, the high end for slow decline.
